Test results taken from patent publication US9079887B2, “Antiviral compounds” (priority 2012, dated 2015).
Like-named read-outs stand apart in the source and are kept apart here.

Legend:
Format in all cases: cell-based
[1] = test system: stable HCV 1a RLuc replicon cells (genotype 1a H77 replicon); assay: HCV replicon RLuc reporter assay, genotype 1a; details: Hepatitis C virus, genotype 1a replicon
Method: (§1) Antiviral potency (EC50) was determined using a Renilla luciferase (RLuc)-based HCV replicon reporter assay. To perform the assay for genotype 1 and 2a JFH-1, stable HCV 1a RLuc replicon cells (harboring a dicistronic genotype 1a H77 replicon that encodes a RLuc reporter), stable HCV 1b RLuc replicon cells (harboring a dicistronic genotype 1b Con1 replicon that encodes a RLuc reporter), or stable HCV 2a JFH-1 Rluc replicon cells (harboring a dicistronic genotype 2a JFH-1 replicon that encodes a RLuc reporter; with L31 present in NS5A) were dispensed into 384-well plates for EC50 assays. To perform the assay for genotype 2a (with M31 present in NS5A) or 2b, NS5A chimeric genotype 2a JFH-1 replicons that encodes a RLuc-Neo reporter and either genotype 2a J6 strain NS5A gene or genotype 2b MD2b-1 strain NS5A gene (both with M31 present) respectively, were either transiently transfected (t) into Huh-Lunet cells or were established as stably replicating replicon cells (s). Either cells were dispensed into 384-well plates for EC50 assays. To perform the assay for genotype 3 and 4, NS5A chimeric genotype 1b Con1 replicons that encodes a Pi-RLuc reporter and either genotype 3a S52 strain NS5A gene or genotype 4a ED43 strain NS5A gene respectively, were transiently transfected (t) into Huh-Lunet cells, which were subsequently dispensed into 384-well plates. Alternatively, stable HCV 3a RLuc replicon cells (s) (harboring a dicistronic genotype 3a S52 replicon that encodes an RLuc reporter), or stable HCV 4a RLuc replicon cells (s) (harboring a dicistronic genotype 4a ED43 replicon that encodes a RLuc reporter) were established in Huh-7-derived cells and dispensed into 384-well plates for EC50 assays. Compounds were dissolved in DMSO at a concentration of 10 mM and diluted in DMSO either manually or using an automated pipeting instrument. Serially 3-fold diluted compounds were either manually mixed with cell culture media and added to the seeded cells or directly added to the cells using an automated instrument. DMSO was used as a negative (solvent; no inhibition) control, and the protease inhibitor ITMN-191 was included at a concentration >100×EC50 as a positive control. 72 hours later, cells were lysed and Renilla luciferase activity quantified as recommended by the manufacturer (Promega-Madison, Wis.). Non-linear regression was performed to calculate EC50 values.

[2] = test system: stable HCV 4a RLuc replicon cells (genotype 4a ED43 replicon); assay: HCV replicon assay, genotype 4a (stable); details: Hepatitis C virus
Method: as §1

[3] = test system: stable HCV 3a RLuc replicon cells (genotype 3a S52 replicon); assay: HCV replicon assay, genotype 3a (stable); details: Hepatitis C virus
Method: as §1

[4] = HCV replicon assay, genotype 2b (stable); details: Hepatitis C virus, genotype 2a / genotype 2b
Method: as §1

[5] = test system: stable HCV 1b RLuc replicon cells (genotype 1b Con1 replicon); assay: HCV replicon RLuc reporter assay, genotype 1b; details: Hepatitis C virus; genotype 1b replicon, 72 hours
Method: as §1

[6] = test system: stable HCV 2a JFH-1 Rluc replicon cells (L31 present in NS5A); assay: HCV replicon RLuc reporter assay, genotype 2a JFH-1; details: Hepatitis C virus
Method: as §1

[7] = HCV replicon assay, genotype 2a J6 (transient); details: Hepatitis C virus
Method: as §1

## COC[C@H]1C[C@@H](c2ncc(-c3ccc(-c4ccc(-c5[nH]c([C@@H]6CC[C@H](C)N6C(=O)[C@@H](NC(=O)OC)C(C)C)nc5Cl)cc4)cc3)[nH]2)N(C(=O)[C@@H](NC(=O)OC)C(C)C)C1 [AH, Methyl (S)-1-((2S,4S)-2-(5-(4′-(4-chloro-2-((2S,4S)-1-((R)-2-(methoxycarbonylamino)-3-methylbutanoyl)-5-methylpyrrolidin-2-yl)-1H-imidazol-5-yl)biphenyl-4-yl)-1H-imidazol-2-yl)-4-(methoxymethyl)pyrrolidin-1-yl)-3-methyl-1-oxobutan-2-ylcarbamate]
[1]
  EC50: 0.037 nM
[1]; activity range
  EC50: < 0.1 nM
[2]; read-out: 4a (s)
  EC50: < 0.1 nM
[2]; read-out: 4a (s) (nM)
  EC50: 0.02 nM
[3]; read-out: 3a (s)
  EC50: 1 to 44 nM
[3]; read-out: 3a (s) (nM)
  EC50: 36.5 nM
[4]; 2BS, read-out: 2b (s)
  EC50: 1 to 44 nM
[4]; read-out: 2b (s) (nM)
  EC50: 7.3 nM
[5]
  EC50: 0.04 nM
[6]; read-out: 2a JFH
  EC50: < 0.1 nM
[6]; read-out: 2a JFH (nM)
  EC50: 0.066 nM

## COC[C@H]1C[C@@H](c2nc(Cl)c(-c3ccc(-c4ccc(-c5cnc([C@@H]6CC[C@H](C)N6C(=O)[C@@H](NC(=O)OC)C(C)C)[nH]5)cc4)cc3)[nH]2)N(C(=O)[C@@H](NC(=O)OC)C(C)C)C1 [AI, Methyl (S)-1-((2S,4S)-2-(4-chloro-5-(4′-(2-((2S,4S)-1-((R)-2-(methoxycarbonylamino)-3-methylbutanoyl)-5-methylpyrrolidin-2-yl)-1H-imidazol-5-yl)biphenyl-4-yl)-1H-imidazol-2-yl)-4-(methoxymethyl)pyrrolidin-1-yl)-3-methyl-1-oxobutan-2-ylcarbamate]
[1]
  EC50: 0.034 nM
[1]; activity range
  EC50: < 0.1 nM
[2]; read-out: 4a (s)
  EC50: < 0.1 nM
[2]; read-out: 4a (s) (nM)
  EC50: 0.018 nM
[3]; read-out: 3a (s)
  EC50: 1 to 44 nM
[3]; read-out: 3a (s) (nM)
  EC50: 40.8 nM
[4]; 2BS, read-out: 2b (s)
  EC50: 1 to 44 nM
[4]; read-out: 2b (s) (nM)
  EC50: 5.08 nM
[5]
  EC50: 0.028 nM
[6]; read-out: 2a JFH
  EC50: < 0.1 nM
[6]; read-out: 2a JFH (nM)
  EC50: 0.075 nM

## COC[C@H]1C[C@@H](c2nc(Cl)c(-c3ccc(-c4ccc(-c5[nH]c([C@@H]6CC[C@H](C)N6C(=O)[C@@H](NC(=O)OC)C(C)C)nc5Cl)cc4)cc3)[nH]2)N(C(=O)[C@@H](NC(=O)OC)C(C)C)C1 [Example AG, Methyl (S)-1-((2S,4S)-2-(4-chloro-5-(4′-(4-chloro-2-((2S,4S)-1-((R)-2-(methoxycarbonylamino)-3-methylbutanoyl)-5-methylpyrrolidin-2-yl)-1H-imidazol-5-yl)biphenyl-4-yl)-1H-imidazol-2-yl)-4-(methoxymethyl)pyrrolidin-1-yl)-3-methyl-1-oxobutan-2-ylcarbamate]
[1]
  EC50: 0.022 nM
[1]; activity range
  EC50: < 0.1 nM
[2]; read-out: 4a (s)
  EC50: < 0.1 nM
[2]; read-out: 4a (s) (nM)
  EC50: 0.011 nM
[3]; read-out: 3a (s)
  EC50: 1 to 44 nM
[3]; read-out: 3a (s) (nM)
  EC50: 17.6 nM
[4]; 2BS, read-out: 2b (s)
  EC50: 1 to 44 nM
[4]; read-out: 2b (s) (nM)
  EC50: 2.56 nM
[5]
  EC50: 0.019 nM
[6]; read-out: 2a JFH
  EC50: < 0.1 nM
[6]; read-out: 2a JFH (nM)
  EC50: 0.05 nM

## COC[C@H]1C[C@@H](c2ncc(-c3ccc(-c4ccc(-c5cnc([C@@H]6CC[C@H](C)N6C(=O)[C@@H](NC(=O)OC)C6CCOCC6)[nH]5)cc4)cc3)[nH]2)N(C(=O)[C@@H](NC(=O)OC)C2CCOCC2)C1 [Example AJ, Methyl [(1S)-2-{(2S,5S)-2-[5-(4′-{2-[(2S,4S)-1-[(2S)-2-[(methoxycarbonyl)amino]-2-(tetrahydro-2H-pyran-4-yl)acetyl]-4-(methoxymethyl)pyrrolidin-2-yl]-1H-imidazol-5-yl}biphenyl-4-yl)-1H-imidazol-2-yl]-5-methylpyrrolidin-1-yl}-2-oxo-1-(tetrahydro-2H-pyran-4-yl)ethyl]carbamate]
[7]; read-out: 2a J6 (t)
  EC50: 0.1 to 0.999 nM
[7]; read-out: 2a J6 (t) (nM)
  EC50: 0.155 nM
[1]
  EC50: 0.186 nM
[1]; activity range
  EC50: 0.1 to 0.999 nM
[2]; read-out: 4a (s)
  EC50: 0.1 to 0.999 nM
[2]; read-out: 4a (s) (nM)
  EC50: 0.133 nM
[3]; read-out: 3a (s)
  EC50: 1 to 44 nM
[3]; read-out: 3a (s) (nM)
  EC50: 1.34 nM
[4]; 2BS, read-out: 2b (s)
  EC50: 0.1 to 0.999 nM
[4]; read-out: 2b (s) (nM)
  EC50: 0.672 nM
[5]
  EC50: 0.384 nM
[6]; read-out: 2a JFH
  EC50: < 0.1 nM
[6]; read-out: 2a JFH (nM)
  EC50: 0.079 nM

## COC[C@H]1C[C@@H](c2ncc(-c3ccc(-c4ccc(-c5cnc([C@@H]6CC[C@H](C)N6C(=O)[C@@H](NC(=O)OC)C6CCOCC6)[nH]5)cc4)cc3)[nH]2)N(C(=O)[C@@H](NC(=O)OC)C(C)C)C1 [Example AL, Methyl {(2S)-1-[(2S,4S)-2-{5-[4′-(2-{(2S,5S)-1-[(2S)-2-[(methoxycarbonyl)amino]-2-(tetrahydro-2H-pyran-4-yl)acetyl]-5-methylpyrrolidin-2-yl}-1H-imidazol-5-yl)biphenyl-4-yl]-1H-imidazol-2-yl}-4-(methoxymethyl)pyrrolidin-1-yl]-3-methyl-1-oxobutan-2-yl}carbamate]
[7]; read-out: 2a J6 (t)
  EC50: < 0.1 nM
[7]; read-out: 2a J6 (t) (nM)
  EC50: 0.084 nM
[1]
  EC50: 0.052 nM
[1]; activity range
  EC50: < 0.1 nM
[2]; read-out: 4a (s)
  EC50: < 0.1 nM
[2]; read-out: 4a (s) (nM)
  EC50: 0.04 nM
[3]; read-out: 3a (s)
  EC50: 1 to 44 nM
[3]; read-out: 3a (s) (nM)
  EC50: 2.14 nM
[4]; 2BS, read-out: 2b (s)
  EC50: 1 to 44 nM
[4]; read-out: 2b (s) (nM)
  EC50: 2.17 nM
[5]
  EC50: 0.074 nM
[6]; read-out: 2a JFH
  EC50: < 0.1 nM
[6]; read-out: 2a JFH (nM)
  EC50: 0.035 nM

## COC[C@H]1C[C@@H](c2ncc(-c3ccc(-c4ccc(-c5cnc([C@@H]6CC[C@H](C)N6C(=O)[C@@H](NC(=O)OC)C(C)C)[nH]5)cc4)cc3)[nH]2)N(C(=O)[C@@H](NC(=O)OC)C2CCOCC2)C1 [Example AN, Methyl [(1S)-2-[(2S,4S)-2-[5-(4′-{2-[(2S,5S)-1-{(2S)-2-[(methoxycarbonyl)-amino]-3-methylbutanoyl}-5-methylpyrrolidin-2-yl]-1H-imidazol-5-yl}biphenyl-4-yl)-1H-imidazol-2-yl]-4-(methoxymethyl)pyrrolidin-1-yl]-2-oxo-1-(tetrahydro-2H-pyran-4-yl)ethyl]carbamate]
[7]; read-out: 2a J6 (t)
  EC50: 0.1 to 0.999 nM
[7]; read-out: 2a J6 (t) (nM)
  EC50: 0.207 nM
[1]
  EC50: 0.037 nM
[1]; activity range
  EC50: < 0.1 nM
[2]; read-out: 4a (s)
  EC50: < 0.1 nM
[2]; read-out: 4a (s) (nM)
  EC50: 0.035 nM
[3]; read-out: 3a (s)
  EC50: 1 to 44 nM
[3]; read-out: 3a (s) (nM)
  EC50: 2.19 nM
[4]; 2BS, read-out: 2b (s)
  EC50: 1 to 44 nM
[4]; read-out: 2b (s) (nM)
  EC50: 2.14 nM
[5]
  EC50: 0.065 nM
[6]; read-out: 2a JFH
  EC50: < 0.1 nM
[6]; read-out: 2a JFH (nM)
  EC50: 0.027 nM
